Experimental findings from patent US9939427B2, “Method for evaluating the scent performance of perfumes or perfume mixtures” (Symrise AG, priority 2013, dated 2018) are described below.

Molecules are shown by their SMILES. Entries after “also recorded” stand apart in the source; their conditions may differ.

One assay concerns the target T1, OR4C3 (Homo sapiens, UniProt Q8NH37).
T1 construct: specific primers, which amplify the complete open reading frame; expressed in transfected cells; host or cells: HEK293
Nature of the assay: Ca-imaging of OR4C3-transfected HEK293 cells. Format: cell-based. Also noted: key: ▪: 18 olfactory receptors responded to 32 odorants in related with specific anosmia. As to conditions: individual odorant 200 μM, significant response p<0.05. The method, then: (§1) HEK293 cells were cultivated in Petri dishes (Ø35 mm) as previously described (Benbernou et al. 2007). We grow up HEK293 cells in culture medium containing standard DMEM with 10% heat-inactivated fetal bovine serum, 2 mM L-glutamine, 100 units/ml penicillin, and 100 units/ml streptomycin in a humidified atmosphere (37° C., 5% CO2). After 2-3 days, the transfection process was carried out, whereby the cell culture was 70-80% confluent. The calciumphosphate method was applied to transfect DNA plasmid transiently in HEK293 cells in case of Ca-imaging method.
(§2) Calcium cations and phosphate anions created crystal precipitations coupled with DNA which could invade into the cells through endocytosis. […]
(§3) Calcium imaging of the transfected HEK293 cells was done by using chambers determinate an inverted microscope (Olympus; IX70) using a 10× objective (CPIanFL N Olympus). Fluorescence emission was determined every 4 s by using a CCD camera (Charge Coupled Device, C9100 Hamamatsu). […] Odorants were manually monitored to drop each 4-5 s to transfected cells. […]
(§4) In experiments, Fura-2 Acetoxymethylester (Fura-2/AM) was applied. […] According to this feature, the analysis of 340/380 nm excitation ratio for Fura-2 allows to quantify intracellular calcium levels. […]

The target in the next assay is T2, OR10C1 (Homo sapiens, UniProt Q96KK4).
T2 construct: specific primers, which amplify the complete open reading frame; expressed in transfected cells; host or cells: HEK293
T2 sequence (Q96KK4 whole entry): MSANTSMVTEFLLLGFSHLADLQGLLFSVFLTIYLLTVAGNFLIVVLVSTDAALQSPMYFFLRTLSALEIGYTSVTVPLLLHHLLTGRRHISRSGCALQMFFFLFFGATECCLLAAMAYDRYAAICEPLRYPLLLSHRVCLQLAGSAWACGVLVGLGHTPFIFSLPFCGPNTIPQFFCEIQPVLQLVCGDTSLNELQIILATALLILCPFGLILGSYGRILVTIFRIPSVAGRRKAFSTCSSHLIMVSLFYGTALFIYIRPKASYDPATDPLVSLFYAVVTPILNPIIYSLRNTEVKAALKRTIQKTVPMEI
Kind of assay: Ca-imaging of OR10C1-transfected HEK293 cells. Format: cell-based. The arrangement: key: ▪: 18 olfactory receptors responded to 32 odorants in related with specific anosmia. As to conditions: individual odorant 200 μM, significant response p<0.05. The method, then:
as §1, §2, §3, §4

Assay [1] relates to HEK293 cells transfected with all cofactors and pCI plasmids without ORs. Nature of the assay: Ca-imaging of control HEK293 cells without OR. It is filed as cell-based. To be noted: for Number of cell responses in controls (FIG. 8, 11, 12): 200 μM, steroid comparison. The method, then:
as §1
(§5) Calcium cations and phosphate anions created crystal precipitations coupled with DNA which could invade into the cells through endocytosis. Cells were transiently transfected with plasmid DNA which consists of pCI expression vector and PCR-amplified full-length cDNA of olfactory receptors candidates, and also Gα15, RTP1, Myr-Ric8A, HSC70, and m-Cherry as cofactors. The precipitation could be created after 15-20 min, with dropping the transfection solution on HEK293 cells. Before measuring by Ca-imaging cells were incubated 48-60 hours at 370 C, 5% CO2. Cationic liposome-mediated transfection method was applied to transfect DNA plasmid transiently in HANA3A cells in case of CRE-Luciferase and CRE-SEAP assays.
(§6) Calcium imaging of the transfected HEK293 cells was done by using chambers determinate an inverted microscope (Olympus; IX70) using a 10× objective (CPIanFL N Olympus). Fluorescence emission was determined every 4 s by using a CCD camera (Charge Coupled Device, C9100 Hamamatsu). The capillary tube which was responsible to supply odorants was generated closely above the cells. The columns filled with odorants, DMSO and ATP. Odorants were manually monitored to drop each 4-5 s to transfected cells. Solutions with drop wise form spread on HEK293 cells in 35 mm dishes.
(§7) In experiments, Fura-2 Acetoxymethylester (Fura-2/AM) was applied. The non-polar Fura2/AM is fluorescent but not yet calcium-sensitive. Once diffuses into cell plasma, Fura-2/AM is hydrolyzed to Fura-2 which is calcium-sensitive and functions as Ca2+ chelator. Regardless of the presence of calcium, Fura-2 emits at the wavelength of 510 nm. Once Fura-2 binds to free intracellular Ca2+ in cell plasma, its ratio of excitation at wavelengths of 340 nm and 380 nm is changed and correlated to the amount of intracellular Ca2+. According to this feature, the analysis of 340/380 nm excitation ratio for Fura-2 allows to quantify intracellular calcium levels.
(§8) In preparation for Ca-imaging measurements, transfected HEK293 cells were added 3 it Fura2/AM (3 μM) and incubated 30-45 min at 370 C, 5% CO2. After this step, experiments were carried out in a dark condition (Fura-2 is light-sensitive). After the incubation, medium of cell culture was replaced with 2 ml Ringer's solution.
(§9) Odorants were freshly prepared with DMSO as 1 M stocks solutions. Six mixtures (200 μM each chemical) were applied to cells sequentially (20 s each mixture/30 s Ringer). Those ORs tested with single odorants that had generated a response to odorant mixture group previously. Odorants were prepared in 100-200 μM concentration.
(§10) Ringer's solution was used for washing cells between measuring by two different odorants. Positive response was determined by the timing of the response, the strength of the response (more than twofold higher than the noise amplitude of the baseline), and the shape of the response curve (sharp rise in curve with gradual recovery). The typical shape of response curves was established by observing responses to repeated stimulation with 200 μM of odorants. After testing with single odorants at 100 μM, stimulating odorants were often retested at 200 μM concentrations. To confirm the result of every receptor that produced a significant response curves, the experiment was repeated for twelve times. Finally, cells were exposed to ATP (0.25 mM) which could activate P2Y receptor channel and induce Ca2+ influx into cells. […]

In a further assay the target is T3, OR1B1-789 (Homo sapiens, UniProt Q8NGR6, C262W).
T3 construct: Full length primers included EcoRI and NotI restriction sites for further cloning into pCI expression vector; Rho-tag (N); expressed in transfected cells; host or cells: HEK293
T3 sequence (Q8NGR6 whole entry C262W): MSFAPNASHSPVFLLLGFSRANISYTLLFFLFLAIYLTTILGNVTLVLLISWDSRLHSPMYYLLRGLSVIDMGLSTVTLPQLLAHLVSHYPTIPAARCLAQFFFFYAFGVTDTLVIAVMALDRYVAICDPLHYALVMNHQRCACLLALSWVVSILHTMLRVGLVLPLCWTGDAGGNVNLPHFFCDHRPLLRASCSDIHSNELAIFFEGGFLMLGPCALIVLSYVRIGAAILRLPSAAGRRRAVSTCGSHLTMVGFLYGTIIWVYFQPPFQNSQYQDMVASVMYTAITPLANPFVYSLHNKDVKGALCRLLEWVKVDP
Nature of the assay: Ca-imaging of mutant OR1B1-789 in HEK293 cells. Format: cell-based. As to conditions: 200 μM, applied for 20 seconds.
Source text: (§11) Mutations were introduced for OR1B1 and OR10Q1 by Overlap Extension PCR (OEP). […] Flanking primers in combination with internal primers provided mutated gene segments, Full length primers included EcoRI and NotI restriction sites for further cloning into pCI expression vector. Site-directed mutations were selected for base of minor allele frequency of nucleotide.
(§12) In mutagenesis by overlap extension PCR method, initial PCRs provided mutated gene segments, with overlapping complementary 3′ ends carrying desired point mutation that were then mixed and used as template for a subsequent PCR to generate the full-length product. Overlapping strands of these intermediate products hybridize at this 3′ region in a subsequent PCR and are extended to generate the full-length product amplified by flanking primers; this shown in FIG. 2. […]
as §3, §4

In the next assay the target is T4, OR1B1-574 (Homo sapiens, UniProt Q8NGR6).
T4 construct: Rho-tag (N); expressed in transfected cells; host or cells: HEK293
Kind of assay: Ca-imaging of mutant OR1B1-574 in HEK293 cells. Format: cell-based. To be noted: 200 μM, applied for 20 seconds.
Source text: as §11, §12, §3, §4

Another assay concerns the target T5, OR1B1 (Homo sapiens, UniProt Q8NGR6).
T5 construct: specific primers, which amplify the complete open reading frame; expressed in transfected cells; host or cells: HEK293
T5 sequence (Q8NGR6 1-317): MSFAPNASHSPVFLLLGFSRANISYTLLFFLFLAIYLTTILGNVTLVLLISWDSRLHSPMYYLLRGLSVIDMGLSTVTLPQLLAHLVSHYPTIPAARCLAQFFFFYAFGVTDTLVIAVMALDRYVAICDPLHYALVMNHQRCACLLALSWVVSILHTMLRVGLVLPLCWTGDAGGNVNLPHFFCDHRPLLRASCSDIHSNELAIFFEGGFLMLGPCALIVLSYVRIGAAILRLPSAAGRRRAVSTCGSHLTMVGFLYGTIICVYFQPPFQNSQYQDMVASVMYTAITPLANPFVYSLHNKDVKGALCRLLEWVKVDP
Nature of the assay: Ca-imaging of OR1B1-transfected HEK293 cells. Format: cell-based. As to conditions: for Number of cell responses of OR1B1 (FIG. 8): 200 μM, approximately 2000 cells in three times of measuring, steroid comparison; for Response of OR1B1 to odorant, in words: single odorants 200 μM; for Number of cell responses, Experiment (OR1B1): odorant 200 μM, approximately 2000 transfected cells in three times of measuring (Table 4, FIG. 5). Also noted: key to OR1B1 responded to odorant: ▪: 18 olfactory receptors responded to 32 odorants in related with specific anosmia. The method, then: as §1, §5, §6, §7, §8, §9, §10

The subject of a further assay is OR1B1-688. Nature of the assay: Ca-imaging of mutant OR1B1-688 in HEK293 cells. To be noted: 200 μM, applied for 20 seconds. Format: cell-based, human.
Source text: as §11, §12, §3, §4

The next assay deals with T6, OR5I1 (Homo sapiens, UniProt Q13606).
T6 construct: specific primers, which amplify the complete open reading frame; expressed in transfected cells; host or cells: HEK293
T6 sequence (Q13606 whole entry): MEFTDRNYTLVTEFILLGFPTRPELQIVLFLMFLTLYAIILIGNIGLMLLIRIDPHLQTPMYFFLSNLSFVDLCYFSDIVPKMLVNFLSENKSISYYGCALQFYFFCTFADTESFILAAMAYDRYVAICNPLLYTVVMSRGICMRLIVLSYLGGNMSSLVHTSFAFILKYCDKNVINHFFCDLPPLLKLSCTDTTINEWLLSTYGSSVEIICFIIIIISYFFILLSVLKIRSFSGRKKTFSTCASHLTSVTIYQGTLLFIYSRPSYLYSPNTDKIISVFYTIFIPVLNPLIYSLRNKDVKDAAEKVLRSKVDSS
Kind of assay: Ca-imaging of OR5I1-transfected HEK293 cells. Format: cell-based. Also noted: key to OR5I1 responded to odorant: ▪: 18 olfactory receptors responded to 32 odorants in related with specific anosmia. The method, then:
as §1, §2, §3, §4

In the next assay the target is T7, OR5L1 (Homo sapiens, UniProt Q8NGL2).
T7 construct: specific primers, which amplify the complete open reading frame; expressed in transfected cells; host or cells: HEK293
T7 sequence (Q8NGL2 whole entry): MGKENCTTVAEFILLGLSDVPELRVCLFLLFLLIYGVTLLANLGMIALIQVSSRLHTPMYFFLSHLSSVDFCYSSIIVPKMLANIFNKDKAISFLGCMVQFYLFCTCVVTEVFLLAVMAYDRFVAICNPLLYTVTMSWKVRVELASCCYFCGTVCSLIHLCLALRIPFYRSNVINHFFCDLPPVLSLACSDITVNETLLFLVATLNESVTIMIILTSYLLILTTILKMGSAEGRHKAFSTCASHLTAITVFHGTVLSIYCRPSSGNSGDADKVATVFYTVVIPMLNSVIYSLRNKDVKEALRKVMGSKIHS
Nature of the assay: Ca-imaging of OR5L1-transfected HEK293 cells. As to conditions: individual odorant 200 μM, significant response p<0.05. It is filed as cell-based. The arrangement: key: ▪: 18 olfactory receptors responded to 32 odorants in related with specific anosmia. The method, then: as §1, §2, §3, §4

The target in a further assay is T8, OR4C16 (Homo sapiens, UniProt Q8NGL9).
T8 construct: specific primers, which amplify the complete open reading frame; expressed in transfected cells; host or cells: HEK293
T8 sequence (Q8NGL9 whole entry): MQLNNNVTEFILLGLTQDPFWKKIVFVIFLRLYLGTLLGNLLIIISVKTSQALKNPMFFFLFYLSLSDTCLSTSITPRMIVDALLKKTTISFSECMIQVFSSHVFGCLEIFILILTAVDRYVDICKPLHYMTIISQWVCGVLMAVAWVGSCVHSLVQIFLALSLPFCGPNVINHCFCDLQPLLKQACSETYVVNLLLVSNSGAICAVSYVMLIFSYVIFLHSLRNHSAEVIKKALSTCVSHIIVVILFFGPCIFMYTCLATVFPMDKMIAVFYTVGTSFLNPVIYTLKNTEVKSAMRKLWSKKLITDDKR
Kind of assay: Ca-imaging of OR4C16-transfected HEK293 cells. It is filed as cell-based. The arrangement: key to OR4C16 responded to odorant: ▪: 18 olfactory receptors responded to 32 odorants in related with specific anosmia. The method, then: as §1, §2, §3, §4

Where [2] appears, read: HEK293 cells, individual odorant 200 μM, significant response p<0.05.

T1 sequence (Q8NH37 whole entry): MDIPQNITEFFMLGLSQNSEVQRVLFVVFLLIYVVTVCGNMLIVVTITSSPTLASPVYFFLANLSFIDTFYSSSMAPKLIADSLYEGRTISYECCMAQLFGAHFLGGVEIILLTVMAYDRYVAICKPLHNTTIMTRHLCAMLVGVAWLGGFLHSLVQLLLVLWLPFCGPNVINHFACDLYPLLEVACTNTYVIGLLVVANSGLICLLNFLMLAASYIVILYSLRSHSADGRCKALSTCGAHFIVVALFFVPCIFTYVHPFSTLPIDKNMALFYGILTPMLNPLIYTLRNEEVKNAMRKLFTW

As for `CC(C)CCC(=O)O` [Isocaproic acid], the “OR4C3 responded to odorant” value at OR4C3 is listed as “▪”.
As to `CCCCCC1C(=O)CCC1CC(=O)OC` (centres unmarked) [Hedione, Hedion], the “OR10C1 responded to odorant” value on OR10C1 was “▪”.
Turning to `C[C@]12CCC(=O)C[C@@H]1CC[C@@H]1[C@@H]2CC[C@]2(C)C=CC[C@@H]12` [Androstenon, 5α-Androst-16-en-3-one], the “Number of cell responses in controls (FIG. 8, 11, 12)” value in assay [1] stood at 3. For the same compound, the “Number of cell responses, Control” value in [1] (odorant 200 μM, three times of measuring (Table 4, FIG. 5)) turned out to be 0. Besides, the “Response of OR1B1-789 in comparison to OR1B1 WT” value at OR1B1-789 (listed as androstenone) is listed as “no significantly different responses; also recorded: did not show any significant difference”. Also, the “Response of OR1B1-574 in comparison to OR1B1 WT” value on OR1B1-574 was “not able to reproduce responses”. In addition, the “Number of cell responses of OR1B1 (FIG. 8)” value at OR1B1 came out at 13. Moreover, the “OR1B1 responded to odorant” value on OR1B1 (Ca-imaging, HEK293 cells, individual odorant 200 μM, significant response p<0.05) is “▪”. For the same compound, the “Response of OR1B1 to odorant, in words” value at OR1B1 (Ca-imaging, listed as androstenone) is given as “significantly (P<0.05) activated; also recorded: responded”. The “Number of cell responses, Experiment (OR1B1)” value is 20 on OR1B1 (listed as Andorestenone) and 35 on OR1B1 (listed as androstenone). For the same compound, in the assay with OR1B1-688 (listed as androstenone), the “Response of OR1B1-688 in comparison to OR1B1 WT” value is “no significantly different responses; also recorded: did not show any significant difference”.
In the case of `C[C@]12CC[C@H]3[C@@H](CCC4=CC(=O)CC[C@@]43C)[C@@H]1CC[C@@H]2O` [testosterone], the “Number of cell responses in controls (FIG. 8, 11, 12)” value in assay [1] turned out to be 1. Also, on OR1B1-789, the “Response of OR1B1-789 in comparison to OR1B1 WT” value was “no significantly different responses; also recorded: did not show any significant difference”. For the same compound, the “Response of OR1B1-574 in comparison to OR1B1 WT” value at OR1B1-574 was “not able to reproduce responses”. On OR1B1, the “Number of cell responses of OR1B1 (FIG. 8)” value is reported as 12. On OR1B1 (Ca-imaging), the “Response of OR1B1 to odorant, in words” value is “responded”. The “Response of OR1B1-688 in comparison to OR1B1 WT” value in the assay on OR1B1-688 is “no significantly different responses; also recorded: did not show any significant difference”.
In the case of `CCCCCCCC=O` [Octanal], the “OR5I1 responded to odorant” value on OR5I1 (setting [2]) is “▪”. Also, the “Response of OR5I1 to odorant, in words” value on OR5I1 (single odorants 200 μM) is listed as “responded”.
As for `CCCCCC1CCC(=O)O1` (centres unmarked) [Aldehyde C18], the “OR5L1 responded to odorant” value at OR5L1 was “▪”. In addition, the “OR4C16 responded to odorant” value at OR4C16 (setting [2]) is recorded as “▪”. Moreover, the “Response of OR4C16 to odorant, in words” value on OR4C16 (single odorants 200 μM) is given as “responded”.
On to `CCC(C)=O` [Odorant 2-butanone, 2-Butanone], for which the “OR10C1 responded to odorant” value at OR10C1 is “▪”.
With `C/C=C/C(=O)C1=C(C)CCCC1(C)C` [B-Damascone, β-Damascone], the “OR5L1 responded to odorant” value on OR5L1 is reported as “▪”. Besides, the “OR4C3 responded to odorant” value on OR4C3 is recorded as “▪”.
